Source: patent US20240041840A1 (Areteia Therapeutics, Inc., priority 2020, published 2024)

Test system: subjects with eosinophilic asthma
Text: Evaluation of Safety: Physical examination, vital signs (systolic and diastolic blood pressure, respiratory rate, heart rate, and temperature), body weight, 12-lead ECG, clinical laboratory evaluations (hematology, blood chemistry, and urinalysis), pregnancy testing, adverse event monitoring, and concomitant medication were monitored throughout the study. […] A neutropenia case report form was utilized during the study to capture detailed clinical information concurrent with any laboratory events of neutropenia.

CCCN[C@@H]1CCc2nc(N)sc2C1 [dexpramipexole, (6R)-2-amino-4,5,6,7-tetrahydro-6-(propylamino) benzothiazole]
Safety and tolerability (300 mg/day and 150 mg/day doses, KNS-760704-AS201 trial): Lastly, the excellent safety and tolerability of the above doses in the KNS-760704-AS201 trial and in previous
Tolerability (across all dose levels (75, 150, 300 mg/day, 12 weeks)): well-tolerated
